Experimental data: ChEMBL document CHEMBL3045696, “CsFCelite catalyzed facile N-alkylation of 2(3H)-benzoxazolones and antimicrobial properties of 2-substituted benzoxazole and 3-substituted-2(3H)-benzoxazolone derivatives” (2011)
Activity calls are given as the source filed them.

Assays:
Format in all cases: functional
Candida albicans [1] = experiment: Antimicrobial activity against Candida albicans MTCC 227 at 150 ug after 48 hr by agar well diffusion method; conditions: for zone of inhibition at 150 µg/disc: MTCC 227, 48 h, read-out: IZ
Rhizopus arrhizus [2] = experiment: Antimicrobial activity against Rhizopus oryzae MTCC 262 at 150 ug after 48 hr by agar well diffusion method; conditions: for zone of inhibition at 150 µg/disc: MTCC 262, 48 h, read-out: IZ
Candida albicans [3] = experiment: Antimicrobial activity against Candida albicans MTCC 227 at 100 ug after 48 hr by agar well diffusion method; conditions: for zone of inhibition at 100 µg/disc: MTCC 227, 48 h, read-out: IZ
Pseudomonas aeruginosa = experiment: Antimicrobial activity against Pseudomonas aeruginosa MTCC 741 by broth dilution method
Aspergillus niger [4] = experiment: Antimicrobial activity against Aspergillus niger MTCC 282 at 100 ug after 48 hr by agar well diffusion method; conditions: for zone of inhibition at 100 µg/disc: MTCC 282, 48 h, read-out: IZ
Bacillus subtilis = experiment: Antimicrobial activity against Bacillus subtilis MTCC 441 by broth dilution method
Saccharomyces cerevisiae [5] = experiment: Antimicrobial activity against Saccharomyces cerevisiae MTCC 36 at 100 ug after 48 hr by agar well diffusion method; conditions: for zone of inhibition at 100 µg/disc: MTCC 36, 48 h, read-out: IZ
Klebsiella pneumoniae = experiment: Antimicrobial activity against Klebsiella pneumoniae MTCC 618 by broth dilution method
Rhizopus arrhizus [6] = experiment: Antimicrobial activity against Rhizopus oryzae MTCC 262 at 100 ug after 48 hr by agar well diffusion method; conditions: for zone of inhibition at 100 µg/disc: MTCC 262, 48 h, read-out: IZ
Staphylococcus aureus = experiment: Antimicrobial activity against Staphylococcus aureus MTCC 96 by broth dilution method
Escherichia coli = experiment: Antimicrobial activity against Escherichia coli MTCC 443 by broth dilution method
Saccharomyces cerevisiae [7] = experiment: Antimicrobial activity against Saccharomyces cerevisiae MTCC 36 at 150 ug after 48 hr by agar well diffusion method; conditions: for zone of inhibition at 150 µg/disc: MTCC 36, 48 h, read-out: IZ
Aspergillus niger [8] = experiment: Antimicrobial activity against Aspergillus niger MTCC 282 at 150 ug after 48 hr by agar well diffusion method; conditions: for zone of inhibition at 150 µg/disc: MTCC 282, 48 h, read-out: IZ
[9] = tested on: Staphylococcus epidermidis; experiment: Antimicrobial activity against Staphylococcus epidermidis by broth dilution method

O=c1oc2ccc(Cl)cc2n1CCCN1CCN(c2ccccn2)CC1
75 µg/mL: MIC (Pseudomonas aeruginosa)
inactive: Activity (Candida albicans [1]) | Activity (Rhizopus arrhizus [2]) | Activity (Candida albicans [3]) | Activity (Aspergillus niger [4]) | Activity (Saccharomyces cerevisiae [5]) | Activity (Rhizopus arrhizus [6]) | Activity (Saccharomyces cerevisiae [7]) | Activity (Aspergillus niger [8])
150 µg/mL: MIC (Bacillus subtilis) | MIC (Klebsiella pneumoniae) | MIC (Staphylococcus aureus) | MIC (Escherichia coli) | MIC [9]

c1ccc2oc(N3CCCNCC3)nc2c1
10 mm: zone of inhibition at 150 µg/disc (Rhizopus arrhizus [2])
inactive: Activity (Candida albicans [1]) | Activity (Candida albicans [3]) | Activity (Aspergillus niger [4]) | Activity (Saccharomyces cerevisiae [5]) | Activity (Saccharomyces cerevisiae [7]) | Activity (Aspergillus niger [8])
75 µg/mL: MIC (Pseudomonas aeruginosa) | MIC (Klebsiella pneumoniae) | MIC (Escherichia coli)
8 mm: zone of inhibition at 100 µg/disc (Rhizopus arrhizus [6])
150 µg/mL: MIC (Bacillus subtilis) | MIC (Staphylococcus aureus) | MIC [9]

c1ccc(N2CCN(c3nc4ccccc4o3)CC2)cc1
75 µg/mL: MIC (Pseudomonas aeruginosa) | MIC (Escherichia coli)
inactive: Activity (Rhizopus arrhizus [2]) | Activity (Candida albicans [3]) | Activity (Aspergillus niger [4]) | Activity (Saccharomyces cerevisiae [5]) | Activity (Rhizopus arrhizus [6]) | Activity (Saccharomyces cerevisiae [7]) | Activity (Aspergillus niger [8])
9 mm: zone of inhibition at 150 µg/disc (Candida albicans [1])
150 µg/mL: MIC (Bacillus subtilis) | MIC (Klebsiella pneumoniae) | MIC (Staphylococcus aureus) | MIC [9]

CC1CN(c2nc3ccccc3o2)CCN1 (centres undefined)
150 µg/mL: MIC (Pseudomonas aeruginosa) | MIC (Bacillus subtilis) | MIC (Klebsiella pneumoniae) | MIC (Staphylococcus aureus) | MIC [9]
inactive: Activity (Candida albicans [1]) | Activity (Rhizopus arrhizus [2]) | Activity (Candida albicans [3]) | Activity (Aspergillus niger [4]) | Activity (Saccharomyces cerevisiae [5]) | Activity (Rhizopus arrhizus [6]) | Activity (Saccharomyces cerevisiae [7]) | Activity (Aspergillus niger [8])
75 µg/mL: MIC (Escherichia coli)

O=c1oc2ccc(Cl)cc2n1CCCN1CCOCC1
10 mm: zone of inhibition at 150 µg/disc (Candida albicans [1]) | zone of inhibition at 100 µg/disc (Rhizopus arrhizus [6]) | zone of inhibition at 150 µg/disc (Saccharomyces cerevisiae [7]) | zone of inhibition at 150 µg/disc (Aspergillus niger [8])
13 mm: zone of inhibition at 150 µg/disc (Rhizopus arrhizus [2])
75 µg/mL: MIC (Bacillus subtilis) | MIC (Klebsiella pneumoniae) | MIC (Staphylococcus aureus) | MIC [9]
37.5 µg/mL: MIC (Pseudomonas aeruginosa) | MIC (Escherichia coli)
8 mm: zone of inhibition at 100 µg/disc (Candida albicans [3]) | zone of inhibition at 100 µg/disc (Aspergillus niger [4]) | zone of inhibition at 100 µg/disc (Saccharomyces cerevisiae [5])

OCCN1CCN(c2nc3ccccc3o2)CC1
150 µg/mL: MIC (Bacillus subtilis) | MIC (Escherichia coli) | MIC [9]
inactive: Activity (Candida albicans [1]) | Activity (Rhizopus arrhizus [2]) | Activity (Candida albicans [3]) | Activity (Aspergillus niger [4]) | Activity (Saccharomyces cerevisiae [5]) | Activity (Rhizopus arrhizus [6]) | Activity (Saccharomyces cerevisiae [7]) | Activity (Aspergillus niger [8])
75 µg/mL: MIC (Pseudomonas aeruginosa) | MIC (Klebsiella pneumoniae) | MIC (Staphylococcus aureus)

C=CCn1c(=O)oc2ccc(Cl)cc21
150 µg/mL: MIC (Bacillus subtilis) | MIC (Staphylococcus aureus) | MIC (Escherichia coli) | MIC [9]
37.5 µg/mL: MIC (Klebsiella pneumoniae)
10 mm: zone of inhibition at 150 µg/disc (Aspergillus niger [8])
inactive: Activity (Rhizopus arrhizus [2]) | Activity (Candida albicans [3]) | Activity (Saccharomyces cerevisiae [5]) | Activity (Rhizopus arrhizus [6]) | Activity (Saccharomyces cerevisiae [7])
8 mm: zone of inhibition at 150 µg/disc (Candida albicans [1]) | zone of inhibition at 100 µg/disc (Aspergillus niger [4])
75 µg/mL: MIC (Pseudomonas aeruginosa)

c1cnc(N2CCN(c3nc4ccccc4o3)CC2)nc1
inactive: Activity (Candida albicans [1]) | Activity (Candida albicans [3]) | Activity (Aspergillus niger [4]) | Activity (Saccharomyces cerevisiae [5]) | Activity (Saccharomyces cerevisiae [7]) | Activity (Aspergillus niger [8])
10 mm: zone of inhibition at 150 µg/disc (Rhizopus arrhizus [2])
8 mm: zone of inhibition at 100 µg/disc (Rhizopus arrhizus [6])
75 µg/mL: MIC (Pseudomonas aeruginosa) | MIC (Klebsiella pneumoniae)
150 µg/mL: MIC (Bacillus subtilis) | MIC (Staphylococcus aureus) | MIC (Escherichia coli) | MIC [9]

O=c1oc2ccc(Cl)cc2n1CCCN1CCN(c2ncccn2)CC1
150 µg/mL: MIC (Pseudomonas aeruginosa) | MIC (Bacillus subtilis) | MIC (Klebsiella pneumoniae) | MIC (Staphylococcus aureus) | MIC (Escherichia coli) | MIC [9]
inactive: Activity (Candida albicans [1]) | Activity (Rhizopus arrhizus [2]) | Activity (Candida albicans [3]) | Activity (Aspergillus niger [4]) | Activity (Saccharomyces cerevisiae [5]) | Activity (Rhizopus arrhizus [6]) | Activity (Saccharomyces cerevisiae [7]) | Activity (Aspergillus niger [8])

O=c1oc2ccc(Cl)cc2n1CCCN1CCN(c2cccc(Cl)c2)CC1
150 µg/mL: MIC (Pseudomonas aeruginosa) | MIC (Bacillus subtilis) | MIC (Klebsiella pneumoniae) | MIC (Staphylococcus aureus) | MIC (Escherichia coli) | MIC [9]
inactive: Activity (Candida albicans [1]) | Activity (Rhizopus arrhizus [2]) | Activity (Candida albicans [3]) | Activity (Aspergillus niger [4]) | Activity (Saccharomyces cerevisiae [5]) | Activity (Rhizopus arrhizus [6]) | Activity (Saccharomyces cerevisiae [7]) | Activity (Aspergillus niger [8])

CCN1CCN(c2nc3ccccc3o2)CC1
12 mm: zone of inhibition at 150 µg/disc (Aspergillus niger [8])
inactive: Activity (Rhizopus arrhizus [2]) | Activity (Rhizopus arrhizus [6])
75 µg/mL: MIC (Klebsiella pneumoniae) | MIC [9]
10 mm: zone of inhibition at 150 µg/disc (Candida albicans [1])
8 mm: zone of inhibition at 100 µg/disc (Candida albicans [3])
150 µg/mL: MIC (Pseudomonas aeruginosa) | MIC (Bacillus subtilis) | MIC (Staphylococcus aureus) | MIC (Escherichia coli)
9 mm: zone of inhibition at 100 µg/disc (Aspergillus niger [4]) | zone of inhibition at 150 µg/disc (Saccharomyces cerevisiae [7])
7 mm: zone of inhibition at 100 µg/disc (Saccharomyces cerevisiae [5])

Clc1cccc(N2CCN(c3nc4ccccc4o3)CC2)c1
150 µg/mL: MIC (Pseudomonas aeruginosa) | MIC (Bacillus subtilis) | MIC (Klebsiella pneumoniae) | MIC (Escherichia coli) | MIC [9]
inactive: Activity (Candida albicans [1]) | Activity (Rhizopus arrhizus [2]) | Activity (Candida albicans [3]) | Activity (Aspergillus niger [4]) | Activity (Saccharomyces cerevisiae [5]) | Activity (Rhizopus arrhizus [6]) | Activity (Saccharomyces cerevisiae [7]) | Activity (Aspergillus niger [8])
75 µg/mL: MIC (Staphylococcus aureus)

C#CCn1c(=O)oc2ccc(Cl)cc21
19 mm: zone of inhibition at 150 µg/disc (Rhizopus arrhizus [2])
11 mm: zone of inhibition at 150 µg/disc (Candida albicans [1])
75 µg/mL: MIC (Bacillus subtilis) | MIC (Klebsiella pneumoniae) | MIC (Staphylococcus aureus) | MIC [9]
8 mm: zone of inhibition at 100 µg/disc (Candida albicans [3])
14 mm: zone of inhibition at 100 µg/disc (Saccharomyces cerevisiae [5])
18 mm: zone of inhibition at 150 µg/disc (Saccharomyces cerevisiae [7]) | zone of inhibition at 150 µg/disc (Aspergillus niger [8])
15 mm: zone of inhibition at 100 µg/disc (Aspergillus niger [4]) | zone of inhibition at 100 µg/disc (Rhizopus arrhizus [6])
37.5 µg/mL: MIC (Pseudomonas aeruginosa) | MIC (Escherichia coli)

CN[C@@H]1[C@H](O[C@H]2[C@H](O[C@H]3[C@H](O)[C@@H](O)[C@H](N=C(N)N)[C@@H](O)[C@@H]3N=C(N)N)O[C@@H](C)[C@]2(O)C=O)O[C@@H](CO)[C@H](O)[C@H]1O [STREPTOMYCIN]
6.25 µg/mL: MIC (Bacillus subtilis) | MIC (Staphylococcus aureus) | MIC (Escherichia coli)
3.12 µg/mL: MIC (Klebsiella pneumoniae) | MIC [9]
1.56 µg/mL: MIC (Pseudomonas aeruginosa)

CC1(C)S[C@@H]2[C@H](NC(=O)Cc3ccccc3)C(=O)N2[C@H]1C(=O)O [PENICILLIN G]
6.25 µg/mL: MIC (Klebsiella pneumoniae)
12.5 µg/mL: MIC (Pseudomonas aeruginosa) | MIC (Escherichia coli)
3.12 µg/mL: MIC [9]
1.56 µg/mL: MIC (Bacillus subtilis) | MIC (Staphylococcus aureus)
